Here are results for 31 compounds from PMC8608967, “KDS2010, a Newly Developed Reversible MAO-B Inhibitor, as an Effective Therapeutic Candidate for Parkinson’s Disease” (Neurotherapeutics, 2021).

For series [1], the target named is T1, human recombinant MAO-B (hMAO-B) (Homo sapiens, UniProt P27338).
T1 construct: purchased Sigma Aldrich
T1 sequence (P27338 1-520): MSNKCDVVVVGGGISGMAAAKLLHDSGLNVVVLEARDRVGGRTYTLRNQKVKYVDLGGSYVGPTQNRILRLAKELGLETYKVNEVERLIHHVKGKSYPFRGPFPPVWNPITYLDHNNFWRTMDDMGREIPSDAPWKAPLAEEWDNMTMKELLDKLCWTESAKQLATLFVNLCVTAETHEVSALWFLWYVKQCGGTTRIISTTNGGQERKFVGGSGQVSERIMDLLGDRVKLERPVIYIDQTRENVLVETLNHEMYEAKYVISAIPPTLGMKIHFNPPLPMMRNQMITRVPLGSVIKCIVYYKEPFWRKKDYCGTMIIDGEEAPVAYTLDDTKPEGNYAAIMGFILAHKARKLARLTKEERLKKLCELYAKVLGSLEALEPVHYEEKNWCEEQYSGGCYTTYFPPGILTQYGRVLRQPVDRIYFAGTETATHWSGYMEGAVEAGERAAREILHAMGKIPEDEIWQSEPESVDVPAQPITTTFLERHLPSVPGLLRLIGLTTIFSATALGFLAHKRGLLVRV
Description: In vitro MAO-B enzyme assay (H2O2 release, absorbance 570 nm). It is filed as biochemical. Particulars: for IC50: hMAO-B, substrate benzylamine, read-out: Inhibition (IC50) MAO-B; for SI (selectivity index), IC50(MAO-A)/IC50(MAO-B): selectivity for MAO-B isoform.
Description: (§1) In brief, human recombinant MAO-A (hMAO-A) and MAO-B (hMAO-B) (Sigma Aldrich) were diluted in 50 mM phosphate buffer (~ 0.3 μg MAO-A protein/well or ~ 2.5 μg MAO-B protein/well), and the test compound was added in DMSO to a final concentration from 0.1 nM to 10 μM. The amount of hydrogen peroxide (H2O2) released after addition of enzyme substrate (p-tyramine for MAO-A or benzylamine for MAO-B) was quantified by measuring the absorbance increase at 570 nm on a microplate reader.

Series [2] concerns the target T2, human recombinant MAO-A (hMAO-A) (Homo sapiens, UniProt P21397).
T2 construct: purchased Sigma Aldrich
T2 sequence (P21397 1-527): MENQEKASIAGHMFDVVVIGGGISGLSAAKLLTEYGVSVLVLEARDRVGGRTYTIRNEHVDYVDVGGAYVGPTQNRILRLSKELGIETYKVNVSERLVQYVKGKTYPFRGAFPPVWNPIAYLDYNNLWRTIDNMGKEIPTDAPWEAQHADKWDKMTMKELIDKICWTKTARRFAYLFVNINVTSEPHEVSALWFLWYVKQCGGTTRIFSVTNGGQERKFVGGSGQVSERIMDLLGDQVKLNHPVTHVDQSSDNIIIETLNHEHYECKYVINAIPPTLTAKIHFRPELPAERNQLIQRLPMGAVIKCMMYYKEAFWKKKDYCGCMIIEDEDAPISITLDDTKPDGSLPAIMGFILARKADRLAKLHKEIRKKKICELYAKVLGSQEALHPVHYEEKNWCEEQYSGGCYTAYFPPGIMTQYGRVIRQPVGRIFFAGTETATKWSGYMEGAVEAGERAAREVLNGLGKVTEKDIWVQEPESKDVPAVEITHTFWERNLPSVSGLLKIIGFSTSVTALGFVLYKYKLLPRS
Description: In vitro MAO-A enzyme assay (H2O2 release, absorbance 570 nm). In kind it is biochemical. Particulars: substrate p-tyramine, read-out: Inhibition (IC50) MAO-A.
Description: as §1

The target in series [3] is T1, human recombinant MAO-B (hMAO-B). Particulars: cited from earlier work; for IC50: read-out: Inhibition (IC50) MAO-B; for SI (selectivity index), IC50(MAO-A)/IC50(MAO-B): selectivity for MAO-B isoform.
The target of series [4] is T2, human recombinant MAO-A (hMAO-A). Particulars: ref Park, JH. et al. Science Advances. 5(3), eaav0136 (2019), read-out: Inhibition (IC50) MAO-A; cited from earlier work.
Series [5] deals with MPTP-induced PD mouse model. Description: MPTP mouse model: vertical grid test and coat hanger test. In kind it is in vivo. Particulars: MPTP mice; long-term (30-day) treatment, 10 mg/kg/day oral.
Description: Group allocation and outcome assessment, but not the conduct of experiments and data analysis, were performed in a blinded manner. Throughout the study, confounders were not controlled. An acclimation period of 7 days was allowed for animals to stabilize in a new environment before model induction. […] Treatment drugs were dissolved in 100 μL of water and total dose (in mg) was calculated according to individual body weight (in kg).
The MPTP model was established using the acute regimen of four intraperitoneal (i.p.) injections of MPTP-HCl (M0896, Sigma Aldrich, 2 mg/mL in saline, 20 mg/kg for one injection) at 2-h intervals.
Motor deficits of the MPTP-induced PD mouse model were assessed using the vertical grid test as described in the previous study [23]. Briefly, after 2 days of habituation to the testing apparatus, individual mice were gently placed 3 cm from the top, facing upward, and allowed to turn around and climb down. We also performed a coat hanger test as described [24–26]. Briefly, a mouse was gently hung on the middle of a coat hanger and allowed to ascend to the top. Performance was graded as follows: 0, falling off the hanger within 20 s; 1, moving to the side-bar of the hanger; 2, reaching the side-bar of the hanger; 3, climbing the side-bar of the hanger; 4, moving to the top of the hanger; 5, climbing and reaching the safe zone. The test was performed twice and each trial lasted a maximum of 3 min.
Where [6] appears, read: hMAO-B, ref Park, JH. et al. Science Advances. 5(3), eaav0136 (2019).
The mark [7] stands for this setting: ref Park, JH. et al. Science Advances. 5(3), eaav0136 (2019).

Where two headings read alike, the source gives them in different places.

Turning to `CC(C)C[C@H](NCc1ccc(-c2ccc(C(F)(F)F)cc2)cc1)C(N)=O` [Compound 22j], the melting point is 267 to 270 °C. Besides, in series [1], the IC50 worked out at 5.3 ± 0.09 µM and the “SI (selectivity index), IC50(MAO-A)/IC50(MAO-B)” value (“SI (selectivity index)” for short) was > 19. Also, in series [2], the IC50 is > 100 µM.

As for `CC(C)C[C@H](NCc1ccc(-c2cccc(F)c2)cc1)C(N)=O` [Compound 22c], the melting point is 264 to 265 °C. For the same compound, the IC50 in series [1] was > 10 µM. Besides, the IC50 in series [2] is > 100 µM.

Regarding `C[C@H](NCc1ccc(-c2ccccc2C(F)(F)F)cc1)C(N)=O` [Compound 18h], the melting point fell in the range of 224 to 227 °C. Also, the IC50 in series [3] (setting [6]) is > 10 µM. The IC50 in series [4] was > 100 µM.

In turn, `CC(C)C[C@H](NCc1ccc(-c2cccc(OC(F)(F)F)c2)cc1)C(N)=O` [Compound 22k] had a melting point of 232 to 233 °C. The IC50 in series [1] is > 10 µM. Also, in series [2], the IC50 was > 100 µM.

Regarding `C[C@H](NCc1ccc(-c2cccc(F)c2)cc1)C(N)=O` [Compound 18c], the melting point lay in the range of 235 to 238 °C. Also, the “SI (selectivity index)” value in series [3] (setting [7]) is > 27. Moreover, the IC50 in series [4] is > 100 µM.

`CCC(C)[C@H](NCc1ccc(-c2ccc(Cl)cc2)cc1)C(N)=O` (some centres unmarked) [Compound 23g] displayed a melting point of 260 to 262 °C. Besides, in series [1], the IC50 is > 10 µM. Further, in series [2], the IC50 is > 100 µM.

Turning to `C[C@H](NCc1ccc(-c2ccccc2Cl)cc1)C(N)=O` [Compound 18e], the melting point was in the range of 216 to 220 °C. Moreover, the IC50 in series [3] (setting [6]) was > 10 µM. Further, the IC50 in series [4] was > 100 µM.

`CCC(C)[C@H](NCc1ccc(-c2cccc(F)c2)cc1)C(N)=O` (some centres unmarked) [Compound 23c] had a melting point of 252 to 255 °C. In series [1], the IC50 was > 10 µM. Also, the 50% inhibitory concentration (IC50) in series [2] was > 100 µM.

The compound `C[C@H](NCc1ccc(-c2cccc(C(F)(F)F)c2)cc1)C(N)=O` [Compound 18i] showed a melting point of 215 to 217 °C. Also, the IC50 in series [3] (setting [6]) is 0.316 ± 0.006 µM. For the same compound, the “SI (selectivity index)” value in series [3] (setting [7]) is given as > 316. Also, the IC50 in series [4] is > 100 µM.

`NC(=O)CNCc1ccc(-c2cccc(OC(F)(F)F)c2)cc1` [Compound 17k] registered a melting point of 152 to 156 °C. Besides, in series [1], the IC50 was found to be 0.323 ± 0.088 µM and the “SI (selectivity index)” value is listed as > 310. Moreover, the IC50 in series [2] was > 100 µM.

Turning to `CC[C@H](NCc1ccc(-c2ccc(OC(F)(F)F)cc2)cc1)C(N)=O` [Compound 20l], in series [1], the IC50 worked out at 0.099 ± 0.005 µM and the “SI (selectivity index)” value was > 1,010. Further, the IC50 in series [2] is > 100 µM.

For the compound `CS(=O)(=O)O.NC(=O)CNCc1ccc(-c2ccccc2)cc1` [Compound 17a], the melting point is 233 to 236 °C. Besides, the IC50 in series [1] is > 10 µM. For the same compound, the IC50 in series [2] was > 100 µM.

`CCC(C)[C@H](NCc1ccc(-c2cccc(C(F)(F)F)c2)cc1)C(N)=O` (some centres unmarked) [Compound 23i]: the melting point lay within 263 to 265 °C. In series [1], the IC50 was in the range of 5 to 10 µM. The IC50 in series [2] was > 100 µM.

Regarding `CC(NCc1ccc(-c2ccc(C(F)(F)F)cc2)cc1)C(N)=O` (centres unmarked) [Compound 19j], in series [4], the IC50 was > 100 µM.

For `COc1cccc(-c2ccc(CN[C@@H](CC(C)C)C(N)=O)cc2)c1` [Compound 22m], the melting point is 240 to 242 °C. Also, the IC50 in series [1] is > 10 µM. Besides, in series [2], the IC50 is > 100 µM.

Take `CCC(C)[C@H](NCc1ccc(-c2cccc(Cl)c2)cc1)C(N)=O` (some centres unmarked) [Compound 23f]: the melting point lay in the range of 248 to 250 °C. In series [1], the IC50 lay within 5 to 10 µM. Moreover, the IC50 in series [2] is > 100 µM.

With `NC(=O)CNCc1ccc(-c2cccc(Cl)c2)cc1` [Compound 17f], the melting point lay in the range of 165 to 168 °C. Moreover, in series [1], the IC50 worked out at 1.56 ± 0.071 µM and the “SI (selectivity index)” value is given as > 64. For the same compound, in series [2], the IC50 is > 100 µM.

Compound `COc1ccc(-c2ccc(CNCC(N)=O)cc2)cc1` [Compound 17n] registered a melting point of 243 to 245 °C. The IC50 in series [1] is > 10 µM. Besides, the IC50 in series [2] was > 100 µM.

Consider `NC(=O)CNCc1ccc(-c2ccc(C(F)(F)F)cc2)cc1` [Compound 17j], for which the melting point was in the range of 255 to 256 °C. In series [1], the IC50 was found to be 0.121 ± 0.08 µM and the “SI (selectivity index)” value was > 826. Also, the “fold increase in the IC50 for MAO-B inhibition versus 18j (KDS2010)” value in series [1] (substitution of CH3 with H at X) is 15 fold. In series [2], the IC50 is > 100 µM.

With `COc1ccc(-c2ccc(CN[C@@H](C)C(N)=O)cc2)cc1` [Compound 18n], the melting point was in the range of 231 to 233 °C. Also, in series [1], the IC50 is 3.33 ± 0.054 µM and the “SI (selectivity index)” value is listed as > 30. Besides, the IC50 in series [2] was > 100 µM.

Regarding `CC[C@H](NCc1ccc(-c2ccc(C(F)(F)F)cc2)cc1)C(N)=O` [Compound 20j], the melting point fell in the range of 253 to 256 °C. For the same compound, in series [1], the IC50 turned out to be 0.242 ± 0.008 µM and the “SI (selectivity index)” value is given as > 413. For the same compound, the IC50 in series [2] is > 100 µM.

For `CC(=O)N[C@H]1CC(=O)N(c2ccc(OCc3cccc(F)c3)cc2)C1` [Sembragiline, reference compound], the IC50 in series [1] was 0.015 ± 0.005 µM; in series [2], 3.85 µM; in series [3] (positive control, literature value, ref Borroni, E. et al. J. Pharmacol. Exp. Ther. 362, 413–423 (2017)), 0.006 ± 0.001 µM. In series [1], the “SI (selectivity index)” value is 653.

In turn, `NC(=O)CNCc1ccc(-c2ccc(OC(F)(F)F)cc2)cc1` [Compound 17l] gave a melting point of 217 to 220 °C. Further, in series [1], the half-inhibitory concentration (IC50) worked out at 0.137 ± 0.07 µM and the “SI (selectivity index)” value is on record as > 730. Also, the IC50 in series [2] was > 100 µM.

In the case of `CC(C)Cc1ccc(-c2ccc(CN[C@@H](C)C(N)=O)cc2)cc1` [Compound 18o], the melting point was 253 to 256 °C. Besides, in series [1], the IC50 was found to be 0.325 ± 0.09 µM and the “SI (selectivity index)” value is on record as > 307. The IC50 in series [2] is > 100 µM.

As to `NC(=O)CNCc1ccc(-c2cccc(C(F)(F)F)c2)cc1` [Compound 17i], the melting point is 168 to 169 °C. Besides, in series [1], the IC50 turned out to be 0.999 ± 0.059 µM and the “SI (selectivity index)” value is > 100. Besides, in series [2], the IC50 was > 100 µM.

With `C[C@H](NCc1ccc(OCc2cccc(F)c2)cc1)C(N)=O` [Safinamide, reference compound], in series [5], the “vertical grid test: time to turn” value is “reduced” and the “vertical grid test: total time” value is reported as “reduced”.

`CC(C)[C@H](NCc1ccc(-c2cccc(C(F)(F)F)c2)cc1)C(N)=O` [Compound 21i] had a melting point of 274 to 278 °C. The IC50 in series [1] was > 10 µM. Further, the half-maximal inhibitory concentration (IC50) in series [2] was > 100 µM.

Turning to `CC(C)C[C@H](NCc1ccc(-c2cccc(C(F)(F)F)c2)cc1)C(N)=O` [Compound 22i], the melting point was 239 to 243 °C. Moreover, the IC50 in series [1] was > 10 µM. Further, the IC50 in series [2] was > 100 µM.

`NC(=O)CNCc1ccc(-c2ccc(Cl)cc2)cc1` [Compound 17g] returned a melting point of 262 to 266 °C. Moreover, in series [1], the IC50 amounted to 1.43 ± 0.1 µM and the “SI (selectivity index)” value is reported as > 70. Also, the IC50 in series [2] was > 100 µM.

The compound `CC(C)[C@H](NCc1ccc(-c2ccc(C(F)(F)F)cc2)cc1)C(N)=O` [Compound 21j] yielded a melting point of 266 to 267 °C. Besides, in series [1], the IC50 came out at 4.07 ± 0.15 µM and the “SI (selectivity index)” value is on record as > 25. In addition, the IC50 in series [2] is > 100 µM.

Take `NC(=O)CNCc1ccc(-c2ccc(F)cc2)cc1` [Compound 17d]: the melting point is 238 to 242 °C. In addition, the IC50 in series [1] is > 10 µM. For the same compound, in series [2], the IC50 is > 100 µM.

The IC50 is the concentration needed to halve the response being measured. Broadly, the melting point is the temperature, or range, at which the solid turns liquid.
